Like-named read-outs stand apart in the source and are kept apart here.
Assays:
HCC1806 TNBC cell line = experiment: MTT survival assay HCC1806; assay type: cell-based; details: for IC50: Homo sapiens, HCC1806
Method: (§1) Indicated TNBC cell lines were detached and resuspended at 120,000 cells/ml and added into each well of a transparent 384-well plate in the final volume of 20 µl/well. The cells were maintained in DMEM containing 10% FBS at 37°C, 5% CO2 overnight. Next day, the medium in each well was replaced by 40 μl of the fresh one containing the indicated concentrations of compounds. In case of drug combination experiments, each compound dilution was delivered in corresponding well in 20 μl of medium. […] After incubation for 3–4 days, depending on the cell line, the medium in each well was replaced by 25 μl of 0.5 mg/ml Thiazolyl blue solution in 1xPBS following by incubation for 3 h at 37°C. Then the solution was removed and 25 μl DMSO was added into each well. Absorbance at 510 nm was measured in a Tecan Infinite M200 PRO plate reader.

HCC1395 TNBC cell line = experiment: MTT survival assay HCC1395; assay type: cell-based; details: Homo sapiens, HCC1395; Table S2; read-out: MTT HCC-1395 IC50
Method: as §1

[1] = system: non-cancerous breast epithelial cell line MCF10a; experiment: MTT survival assay MCF10a; assay type: cell-based; details: for IC50: Homo sapiens, MCF-10A
Method: as §1

[2] = system: MDA-MB-468 TNBC cell line; experiment: MTT survival assay MDA-MB-468; assay type: cell-based; details: Homo sapiens, MDA-MB-468; Table S2
Method: as §1

[3] = system: β-catenin-dependent Wnt-pathway; experiment: TopFlash luciferase reporter assay, CHIR99021-stimulated, HCC1395; assay type: cell-based; details: for Emax / IC50: stimulation with CHIR99021 (GSK3β inhibitor); for Emax: read-out: HCC1395 TopFlash Efficacy; for IC50: read-out: HCC1395 TopFlash IC50
Description: Both stimulations abolish formation of the destruction complex, a multiprotein complex consisting of Axin, adenomatous polyposis coli (APC), glycogen synthase kinase three beta (GSK3β), and casein kinase one alpha (CK1α). Upon inactivation of the complex, β-catenin accumulates in the cytoplasm and translocates into the nucleus where it interacts with transcription factors. These downstream events are quantified by a Luciferase transcription-based readout assay (TopFlash assay).

in vitro = details: human, HCC1395 Cytotoxicity IC50
Method: (§2) The simplicity of the scaffold combined with synthetic accessibility allows building a library of compounds and performing structure activity relationship (SAR) studies of the three main parts of the molecule: the top part, the linker and the core (Figure 2).
(§3) The synthesized compounds were used to explore SAR of three defined areas of investigation (Figure 2). All compounds were tested in the HCC1395 TNBC cell line using the GSK3β inhibitor to induce β-catenin signaling since 4a acted downstream of GSK3β (Figure 2). Both inhibition of β-catenin signaling measured by the TopFlash reporter and cytotoxicity measured by the Renilla reporter were assessed.
(§4) The Wnt3a or CHIR99021-stimulated luciferase activity in HCC1395 TNBC cell line stably transfected with the TopFlash reporter was analyzed essentially as described for the BT-20 TNBC cell line ([Shaw et al., 2019b]; [Koval et al., 2021]). Reporter cells were seeded at 10,000 cells/well in a white opaque 384-well plate in the final volume of 20 μl of DMEM medium supplemented with 10% FCS. The cells were maintained incubated at 37°C, 5% CO2 overnight for attachment. Subsequently, they were transfected by a plasmid encoding constitutively expressed Renilla luciferase under the CMV promoter overall as described in the manufacturer’s protocol using 12 μg/ml of DNA and 40 μl/ml XtremeGENE nine reagent. The next day, the medium in each well was replaced with a 10 μl of fresh medium containing compound of interest, and, after 1 h of preincubation with the compounds, additional 10 μl of medium supplemented with Wnt3a [purified as described ([Willert et al., 2003]; [Koval and Katanaev, 2011])] or CHIR99021 were added creating respective final concentrations of 2.5 μg/ml or 5 μM of each. In case of other signal transduction reporters, no additional stimulation was performed. Compound dilutions were prepared by serial dilution in DMSO and diluted with the amount of medium necessary to obtain their final concentrations indicated on the figures and tables and maintain concentration of DMSO of 0.5% in all assay points. After overnight incubation, the supernatant in each well was removed, and the luciferase activity was measured as described ([Dyer et al., 2000]; [Huber et al., 2021]; [Pellissier et al., 2021]). The culture medium was completely removed from all wells of the plate. Finally, the luciferase activity of the firefly and Renilla luciferases was detected sequentially in individual wells of a 384-well plate through injection of corresponding measurement solutions and immediate reading (400 ms integration time) in Infinite M Plex multifunctional plate reader with injection module.

HCC1395 cells = experiment: in vitro; details: for HCC1395 Cytotoxicity Efficacy: human
Method: as §2, §3, §4

[4] = system: MDA-MB-231 TNBC cell line; experiment: MTT survival assay MDA-MB-231; assay type: cell-based; details: for IC50: Homo sapiens, MDA-MB-231
Method: as §1

BT-20 TNBC cell line = experiment: MTT survival assay BT-20; assay type: cell-based; details: Homo sapiens, BT-20; Table S2; read-out: MTT BT-20 IC50
Method: as §1

TNBC cell proliferation = experiment: Loewe synergism with docetaxel in anti-proliferative assay (COMBENEFIT); assay type: cell-based; details: Loewe model
Description: The Wnt-pathway is implicated in chemoresistance to conventional chemotherapies and drives a poor chemotherapy response in a broad range of tumors ([O’Reilly et al., 2015]; [Martin-Orozco et al., 2019]; [Zhong and Virshup, 2020]). To assess how combination with our compounds affects the anti-proliferative capacity of docetaxel—one of the first-line treatments for TNBC ([Mandapati and Lukong, 2022]), we performed the Loewe synergism assessment over a complete dose-response range of both compounds followed by analysis in the COMBENEFIT software in Matlab (Figure 7 and Supplementary Figure S1) ([Di Veroli et al., 2016]).
as §1
The data was visualized analyzed in either GraphPad Prism nine using indicated statistical analysis or in R using gplots package ([Warnes et al., 2009]). Dataset from CCLE ([Barretina et al., 2012]) were used in the study and pathway enrichment analysis was performed by DAVID online tool ([Sherman et al., 2022]). Drug combination data was treated in COMBENEFIT software ([Di Veroli et al., 2016]). Network was built using Cytoscape with StringDB plugin ([Shannon et al., 2003]; [Szklarczyk et al., 2021]).

[5] = Table S2, read-out: MTT HCC1806 IC50
[6] = Table S2, read-out: MTT MCF10 IC50
[7] = Table S2, read-out: MTT MDA-MB-231 IC50
[8] = Figure 3B heatmap, read-out: IC50, μM (HCC1806)
[9] = Figure 3B heatmap, read-out: IC50, μM (MCF10)
[10] = Figure 3B heatmap, read-out: IC50, μM (MDA-MB-231)

Row | Structure (SMILES) | IC50 ([3]; Homo sapiens, HCC1395, HCC1395) [nM] | IC50 (HCC1806 TNBC cell line; [5]) [µM] | IC50 (HCC1395 TNBC cell line) [nM] | IC50 [1, 6] [µM] | IC50 [2] [nM] | Emax ([3]; Homo sapiens, HCC1395, HCC1395) [%] | IC50 (in vitro) [µM] | IC50 [4, 7] [µM] | MTT MDA-MB-231 Comments ([4]; Table S2) | IC50 (BT-20 TNBC cell line) [µM] | effect of co-treatment with docetaxel (TNBC cell proliferation) | MTT MCF10 Comments ([1]; Table S2) | GSK HCC1395 Renilla Comments (HCC1395 cells) | IC50 [4, 10] [µM] | also measured
1 | COc1ccccc1C(C)Nc1ncnc2sccc12 (stereo not shown) [Compound 5a, N-(1-(2-methoxyphenyl)ethyl)thieno[2,3-d]pyrimidin-4-amine] | 770 ± 440 | > 10 | 120 | > 10 | 100 | 46.1 ± 3.44 | > 50 | > 10 | Inactive | 4.08 | exclusively synergistic effects | Inactive | Non-toxic | – | IC50 (HCC1806 TNBC cell line; [8]): > 50 µM; MTT HCC1806 Comments (HCC1806 TNBC cell line; Table S2): Inactive
2 | Clc1cccc(CNc2ncnc3sccc23)c1 [Compound 4i, N-(3-chlorobenzyl)thieno[2,3-d]pyrimidin-4-amine] | 8400 ± 5010 | 2.2 | 1740 | > 10 | 1440 | 56.2 ± 4 | > 50 | 18.7 | – | 5.24 | – | Inactive | Non-toxic | – | MTT MDA-MB-231 plateau ([4]; Table S2): 100
3 | Clc1ccc(CCNc2ncnc3sccc23)cc1 [Compound 5m, N-(4-chlorophenethyl)thieno[2,3-d]pyrimidin-4-amine] | 1790 ± 1450 | 13.1 | 3700 | > 50 | 8460 | 82 ± 21.1 | > 50 | > 50 | – | 6.72 | exclusively synergistic effects | Inactive | Non-toxic | > 10 | IC50 [1, 9]: > 10 µM
4 | c1ccc(CCNc2ncnc3sccc23)cc1 [Compound 5g, N-phenethylthieno[2,3-d]pyrimidin-4-amine] | 2640 ± 1220 | > 50 | 4590 | > 50 | > 50000 | 89 | > 50 | > 50 | – | > 50 | – | – | Non-toxic | > 10 | IC50 [1, 9]: > 10 µM
5 | Fc1ccc(CNc2ncnc3sccc23)cc1 [Compound 4g, N-(4-fluorobenzyl)thieno[2,3-d]pyrimidin-4-amine] | 4150 ± 910 | 2.37 | 1960 | > 10 | 1460 | 78.6 ± 29.8 | > 50 | 25.4 | – | 1.63 | – | Inactive | Non-toxic | – | fold improvement in the activity compared to 4a ([3]; TopFlash IC50 vs 4a): 2 fold; MTT MDA-MB-231 plateau ([4]; Table S2): 100
6 | COc1cc(CNc2ncnc3sccc23)ccc1F [Compound 4p, N-(4-fluoro-3-methoxybenzyl)thieno[2,3-d]pyrimidin-4-amine] | 2590 ± 1080 | > 50 | 13600 | > 50 | > 50000 | 71.4 ± 11.1 | 4.04 | > 50 | – | > 50 | exclusively synergistic effects | – | – | – | IC50 (HCC1806 TNBC cell line; [8]): > 10 µM; IC50 [1, 9]: > 10 µM; GSK HCC1395 Comments ([3]; Table S2): Toxic; HCC1395 Cytotoxicity Efficacy (HCC1395 cells): 41.8%
7 | COc1cccc(CNc2ncnc3ccccc23)c1 [Compound 9b, N-(3-methoxybenzyl)quinazolin-4-amine] | – | > 50 | 1050 | 40.1 | 2620 | 82.6 ± 13.5 | > 50 | > 50 | Inactive | 1.1 | – | – | Non-toxic | > 10 | MTT HCC1806 Comments (HCC1806 TNBC cell line; Table S2): Inactive
8 | Clc1cccc(CCNc2ncnc3sccc23)c1 [Compound 5l, N-(3-chlorophenethyl)thieno[2,3-d]pyrimidin-4-amine] | 1790 | 38.1 | 6150 | > 50 | 37000 | 77.5 ± 16.3 | > 50 | > 50 | – | 15 | – | – | Non-toxic | > 10 | IC50 ([3]; HCC1395): 3070 ± 2390 nM

Second part, led by results:

Row | IC50 ([3]; Homo sapiens, HCC1395, HCC1395) [nM] | Structure (SMILES) | IC50 (HCC1806 TNBC cell line; [5]) [µM] | IC50 (HCC1395 TNBC cell line) [nM] | IC50 [1, 6] [µM] | IC50 [2] [nM] | Emax ([3]; Homo sapiens, HCC1395, HCC1395) [%] | IC50 (in vitro) [µM] | IC50 [4, 7] [µM] | MTT MDA-MB-231 Comments ([4]; Table S2) | IC50 (BT-20 TNBC cell line) [µM] | effect of co-treatment with docetaxel (TNBC cell proliferation) | MTT MCF10 Comments ([1]; Table S2) | GSK HCC1395 Renilla Comments (HCC1395 cells) | IC50 [4, 10] [µM] | also measured
9 | 1220 ± 330 | Cc1ccc(CNc2ncnc3ccccc23)cc1 [Compound 9f, N-(4-methyl)quinazolin-4-amine] | 23.4 | 1070 | 9.42 | 830 | 51.6 ± 7.9 | 8.13 ± 3.8 | > 10 | Inactive | 6.08 | exclusively synergistic effects | – | – | – | HCC1395 Cytotoxicity Efficacy (HCC1395 cells): 100 ± 0%
10 | 670 ± 130 | Fc1ccc(CNc2ncnc3ccccc23)cc1 [Compound 9d, N-(4-fluoro)quinazolin-4-amine] | > 10 | 1150 | 12.5 | 800 | 87.1 ± 4.09 | > 50 | > 10 | Inactive | 2.92 | exclusively synergistic effects | – | – | – | MTT HCC1806 Comments (HCC1806 TNBC cell line; Table S2): Inactive
11 | 1880 ± 280 | Cc1ccc(C(C)Nc2ncnc3ccccc23)cc1 (stereo not shown) [Compound 9i, N-(1-(p-tolyl)ethyl)quinazolin-4-amine] | – | – | – | – | 54.6 ± 2.9 | 10.3 ± 2.06 | – | – | – | exclusively synergistic effects | – | – | – | HCC1395 Cytotoxicity Efficacy (HCC1395 cells): 38.7 ± 12.8%
